Experimental data as given in PubChem BioAssay (NCI).
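Values below derive from 48-hour exposures of cells grown in 96-well plates, with endpoints linearly interpolated between the two concentrations bracketing the appropriate inhibition level. TGI is the concentration that stops growth completely.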

Columns and labels:
Test in all cases: DTP human tumour cell line panel, 48 h
HS 578T breast = test system: HS 578T breast
SK-OV-3 ovarian = test system: SK-OV-3 ovarian
HOP-62 NSCLC = test system: HOP-62 NSCLC
PC-3 prostate = test system: PC-3 prostate
T-47D breast = test system: T-47D breast
HCT-15 colon = test system: HCT-15 colon
BT-549 breast = test system: BT-549 breast
ACHN renal = test system: ACHN renal
MDA-MB-231 breast = test system: MDA-MB-231 breast
UACC-257 melanoma = test system: UACC-257 melanoma
HCC-2998 colon = test system: HCC-2998 colon
786-0 renal = test system: 786-0 renal
OVCAR-5 ovarian = test system: OVCAR-5 ovarian
MDA-MB-435 = test system: MDA-MB-435
DU-145 prostate = test system: DU-145 prostate
SK-MEL-28 melanoma = test system: SK-MEL-28 melanoma
HCT-116 colon = test system: HCT-116 colon
NCI-H23 lung = test system: NCI-H23 lung
A549 NSCLC = test system: A549 NSCLC
EKVX NSCLC = test system: EKVX NSCLC
SF-539 CNS = test system: SF-539 CNS
UO-31 renal = test system: UO-31 renal
TK-10 renal = test system: TK-10 renal
U251 CNS = test system: U251 CNS
M14 melanoma = test system: M14 melanoma
KM12 colon = test system: KM12 colon
NCI/ADR-RES ovarian = test system: NCI/ADR-RES ovarian
OVCAR-8 ovarian = test system: OVCAR-8 ovarian
SF-295 CNS = test system: SF-295 CNS
HOP-92 NSCLC = test system: HOP-92 NSCLC
IGROV1 ovarian = test system: IGROV1 ovarian
COLO 205 colon = test system: COLO 205 colon
HT29 colon = test system: HT29 colon
MCF7 breast = test system: MCF7 breast
SK-MEL-5 melanoma = test system: SK-MEL-5 melanoma
NCI-H522 lung = test system: NCI-H522 lung
A498 renal = test system: A498 renal
UACC-62 melanoma = test system: UACC-62 melanoma
NCI-H226 lung = test system: NCI-H226 lung
OVCAR-3 ovarian = test system: OVCAR-3 ovarian
SNB-75 CNS = test system: SNB-75 CNS
SF-268 CNS = test system: SF-268 CNS
CAKI-1 renal = test system: CAKI-1 renal
HL-60(TB) leukemia = test system: HL-60(TB) leukemia
LOX IMVI melanoma = test system: LOX IMVI melanoma
K-562 leukemia = test system: K-562 leukemia
SNB-19 CNS = test system: SNB-19 CNS
RPMI-8226 leukemia = test system: RPMI-8226 leukemia
OVCAR-4 ovarian = test system: OVCAR-4 ovarian
MOLT-4 leukemia = test system: MOLT-4 leukemia
NCI-H460 lung = test system: NCI-H460 lung
SN12C renal = test system: SN12C renal
CCRF-CEM leukemia = test system: CCRF-CEM leukemia
SW-620 colon = test system: SW-620 colon
MALME-3M melanoma = test system: MALME-3M melanoma
SK-MEL-2 melanoma = test system: SK-MEL-2 melanoma
RXF 393 renal = test system: RXF 393 renal

## Cc1sc2nc(-c3ccc([N+](=O)[O-])cc3)c(/C=N/N=C(N)N)n2c1C
HS 578T breast
  TGI: 3.49 µM
SK-OV-3 ovarian
  TGI: 3.12 µM
HOP-62 NSCLC
  TGI: 2.12 µM
PC-3 prostate
  TGI: 2.65 µM
T-47D breast
  TGI: 3.1 µM
HCT-15 colon
  TGI: 2.82 µM
BT-549 breast
  TGI: 2.79 µM
ACHN renal
  TGI: 2.61 µM
MDA-MB-231 breast
  TGI: 1.17 µM
UACC-257 melanoma
  TGI: 2.77 µM
HCC-2998 colon
  TGI: 0.693 µM
786-0 renal
  TGI: 0.637 µM
OVCAR-5 ovarian
  TGI: 2.81 µM
MDA-MB-435
  TGI: 2.25 µM
DU-145 prostate
  TGI: 2.74 µM
SK-MEL-28 melanoma
  TGI: 1.37 µM
HCT-116 colon
  TGI: 0.427 µM
NCI-H23 lung
  TGI: 2.73 µM
A549 NSCLC
  TGI: 2.88 µM
EKVX NSCLC
  TGI: 2.41 µM
SF-539 CNS
  TGI: 3.26 µM
UO-31 renal
  TGI: 2.98 µM
TK-10 renal
  TGI: 2.84 µM
U251 CNS
  TGI: 0.358 µM
M14 melanoma
  TGI: 1.99 µM
KM12 colon
  TGI: 1.03 µM
NCI/ADR-RES ovarian
  TGI: 11 µM
OVCAR-8 ovarian
  TGI: 1.8 µM
SF-295 CNS
  TGI: 2.42 µM
HOP-92 NSCLC
  TGI: 2.81 µM
IGROV1 ovarian
  TGI: 2.71 µM
COLO 205 colon
  TGI: 0.809 µM
HT29 colon
  TGI: 1.63 µM

## C/C(=N\NC(=S)N1CCN(C)CC1)c1nc2ncccc2[nH]1
HS 578T breast
  TGI: > 100 µM
SK-OV-3 ovarian
  TGI: > 100 µM
HOP-62 NSCLC
  TGI: > 100 µM
PC-3 prostate
  TGI: > 100 µM
MCF7 breast
  TGI: 80.5 µM
SK-MEL-5 melanoma
  TGI: > 100 µM
NCI-H522 lung
  TGI: > 100 µM
T-47D breast
  TGI: > 100 µM
HCT-15 colon
  TGI: > 100 µM
A498 renal
  TGI: > 100 µM
BT-549 breast
  TGI: > 100 µM
ACHN renal
  TGI: > 100 µM
UACC-62 melanoma
  TGI: > 100 µM
MDA-MB-231 breast
  TGI: > 100 µM
UACC-257 melanoma
  TGI: > 100 µM
HCC-2998 colon
  TGI: > 100 µM
NCI-H226 lung
  TGI: > 100 µM
786-0 renal
  TGI: > 100 µM
OVCAR-3 ovarian
  TGI: > 100 µM
SNB-75 CNS
  TGI: > 100 µM
SF-268 CNS
  TGI: > 100 µM
OVCAR-5 ovarian
  TGI: > 100 µM
MDA-MB-435
  TGI: > 100 µM
CAKI-1 renal
  TGI: > 100 µM
SK-MEL-28 melanoma
  TGI: > 100 µM
NCI-H23 lung
  TGI: > 100 µM
HL-60(TB) leukemia
  TGI: > 100 µM
LOX IMVI melanoma
  TGI: > 100 µM
A549 NSCLC
  TGI: > 100 µM
EKVX NSCLC
  TGI: > 100 µM
SF-539 CNS
  TGI: > 100 µM
K-562 leukemia
  TGI: > 100 µM
SNB-19 CNS
  TGI: > 100 µM
RPMI-8226 leukemia
  TGI: > 100 µM
OVCAR-4 ovarian
  TGI: > 100 µM
UO-31 renal
  TGI: > 100 µM
TK-10 renal
  TGI: > 100 µM
U251 CNS
  TGI: > 100 µM
MOLT-4 leukemia
  TGI: > 100 µM
M14 melanoma
  TGI: > 100 µM
NCI-H460 lung
  TGI: > 100 µM
SN12C renal
  TGI: > 100 µM
KM12 colon
  TGI: > 100 µM
NCI/ADR-RES ovarian
  TGI: > 100 µM
OVCAR-8 ovarian
  TGI: > 100 µM
CCRF-CEM leukemia
  TGI: > 100 µM
SF-295 CNS
  TGI: > 100 µM
HOP-92 NSCLC
  TGI: > 100 µM
SW-620 colon
  TGI: > 100 µM
IGROV1 ovarian
  TGI: > 100 µM
COLO 205 colon
  TGI: > 100 µM
HT29 colon
  TGI: > 100 µM
MALME-3M melanoma
  TGI: > 100 µM

## Cc1ccc2nc(-c3ccccc3)c(N=O)n2c1
HS 578T breast
  TGI: > 100 µM
SK-OV-3 ovarian
  TGI: > 100 µM
HOP-62 NSCLC
  TGI: > 100 µM
PC-3 prostate
  TGI: > 100 µM
MCF7 breast
  TGI: > 100 µM
SK-MEL-5 melanoma
  TGI: > 100 µM
NCI-H522 lung
  TGI: > 100 µM
T-47D breast
  TGI: > 100 µM
HCT-15 colon
  TGI: > 100 µM
A498 renal
  TGI: > 100 µM
BT-549 breast
  TGI: > 100 µM
ACHN renal
  TGI: > 100 µM
SK-MEL-2 melanoma
  TGI: > 100 µM
UACC-62 melanoma
  TGI: 49.6 µM
MDA-MB-231 breast
  TGI: 73.1 µM
UACC-257 melanoma
  TGI: > 100 µM
NCI-H226 lung
  TGI: > 100 µM
786-0 renal
  TGI: > 100 µM
OVCAR-3 ovarian
  TGI: > 100 µM
SNB-75 CNS
  TGI: > 100 µM
SF-268 CNS
  TGI: > 100 µM
OVCAR-5 ovarian
  TGI: > 100 µM
MDA-MB-435
  TGI: > 100 µM
CAKI-1 renal
  TGI: > 100 µM
DU-145 prostate
  TGI: > 100 µM
SK-MEL-28 melanoma
  TGI: > 100 µM
HCT-116 colon
  TGI: > 100 µM
NCI-H23 lung
  TGI: > 100 µM
LOX IMVI melanoma
  TGI: > 100 µM
A549 NSCLC
  TGI: > 100 µM
EKVX NSCLC
  TGI: 79.5 µM
SF-539 CNS
  TGI: 92.7 µM
K-562 leukemia
  TGI: > 100 µM
SNB-19 CNS
  TGI: > 100 µM
RPMI-8226 leukemia
  TGI: > 100 µM
OVCAR-4 ovarian
  TGI: > 100 µM
UO-31 renal
  TGI: > 100 µM
TK-10 renal
  TGI: > 100 µM
U251 CNS
  TGI: > 100 µM
MOLT-4 leukemia
  TGI: > 100 µM
M14 melanoma
  TGI: > 100 µM
NCI-H460 lung
  TGI: > 100 µM
SN12C renal
  TGI: 61 µM
KM12 colon
  TGI: > 100 µM
NCI/ADR-RES ovarian
  TGI: > 100 µM
RXF 393 renal
  TGI: > 100 µM
OVCAR-8 ovarian
  TGI: > 100 µM
CCRF-CEM leukemia
  TGI: > 100 µM
SF-295 CNS
  TGI: > 100 µM
HOP-92 NSCLC
  TGI: > 100 µM
SW-620 colon
  TGI: > 100 µM
IGROV1 ovarian
  TGI: > 100 µM
COLO 205 colon
  TGI: > 100 µM
HT29 colon
  TGI: > 100 µM
MALME-3M melanoma
  TGI: > 100 µM
